Assays:
Nilaparvata lugens = experiment: Insecticidal activity against Nilaparvata lugens (planthopper) by spraying; format: in vivo; settings: 500 ppm; for mortality (%) (500 ppm) Nilaparvata lugens: spraying 2 ml, counted after 24 hours; for mortality (%) (500 ppm) Nilaparvata-lugens: spraying 2 ml per tumbler, killed counted after 24 hours
Description: (§1) Test on the insecticidal activity of Compound Nos. 1-227
Planthopper, which belongs to Homoptera and has a piercing-sucking mouthpart, is a common insect for agricultural plant. Nilaparvata lugens was tested by the way of spraying.
Test method: the test compound was exactly formulated into a solution having a certain concentration and clean water was used as a blank control. Each process was repeated for 3 tumblers (3 times). 2 ml of solution was sprayed uniformly to each tumbler by a mini manual sprayer. 10 Nilaparvata lugens were introduced to every sink 6 hours before spraying. Three series of experiments were conducted. The number of killed Nilaparvata lugens was counted after 24 hours to calculate the mortality.

Aphis craccivoral = experiment: Insecticidal activity against Aphis craccivoral by immersing (dipping aphids on bean sprout); format: in vivo; settings: 23° C.
Description: as §1
Aphis, which belongs to Homoptera and has a piercing-sucking mouthpart, is a common insect for agricultural plant. Aphis craccivoral was tested by the way of immersing.
Test method: exactly weighed various samples were independently added to N,N-dimethylformamide to form a 10 g/L stock solution. The mixture was diluted with 0.2 mL/L aqueous Triton X-100 solution to a concentration of 500 ug/mL. After stably sucking on bean sprout, the adult aphis without wings together with bean sprout was dipped into 500 ug/mL dilution, taken out after 5 seconds, and the excess dilution was sucked out with bibulous paper and the adult aphis without wings was incubated in clean vessel at a constant temperature of 23° C. Each concentration was repeated for 3 times and the control group contained 0.2 mL/L aqueous Triton X-100 solution. The number of killed aphis was counted after 24 hours to calculate the mortality.

[1] = 500 ppm, immersing (dipped 5 seconds), counted after 24 hours
[2] = 500 ppm (500 ug/mL dilution), dipped 5 seconds, killed aphis counted after 24 hours

Row | SMILES | mortality (%) (500 ppm) Nilaparvata lugens (Nilaparvata lugens) | mortality (%) (500 ppm) Aphis (Aphis craccivoral; [1]) | mortality (%) (500 ppm) Nilaparvata-lugens (Nilaparvata lugens) | mortality (%) (500 ppm) Aphis (Aphis craccivoral; [2])
1 | CC(C)COC1CCC([N+](=O)[O-])=C2N(Cc3cnc(Cl)s3)CCCN21 (stereo not shown) [Compound 94] | 3 | 8 | – | –
2 | O=[N+]([O-])C1=C2N(Cc3cnc(Cl)s3)CCN2C(OS(=O)(=O)c2ccccc2)CC1 (stereo not shown) [Compound 158] | 7 | 6 | – | –
3 | CCCSC1CCC([N+](=O)[O-])=C2N(Cc3cnc(Cl)s3)CCN21 (stereo not shown) [Compound 175] | – | – | 100 | 89
4 | O=[N+]([O-])C1=C2N(Cc3ccc(Cl)nc3)CCCN2C(OCCCl)CC1 (stereo not shown) [Compound 74] | 13 | 12 | – | –
5 | O=[N+]([O-])C1=C2N(Cc3ccc(Cl)nc3)CCCN2C(O)CC1 (stereo not shown) [Compound 71] | 0 | 6 | – | –
6 | CCCCSC1CCC([N+](=O)[O-])=C2N(Cc3cnc(Cl)s3)CCN21 (stereo not shown) [Compound 178] | – | – | 12 | 23
7 | CCC(C)SC1CCC([N+](=O)[O-])=C2N(Cc3cnc(Cl)s3)CCN21 (stereo not shown) [Compound 180] | – | – | 78 | 34
8 | COCCOC1CCC([N+](=O)[O-])=C2N(Cc3cnc(Cl)s3)CCCN21 (stereo not shown) [Compound 97] | 100 | 78 | – | –
9 | CCOCCOC1CCC([N+](=O)[O-])=C2N(Cc3ccc(Cl)nc3)CCN21 (racemic) [Compound 22] | 100 | 100 | – | –
10 | CC(C)CCN=C1CCC([N+](=O)[O-])=C2N(Cc3ccc(Cl)nc3)CCCN12 [Compound 209] | – | – | 26 | 23
11 | CCC(C)OC1CCC([N+](=O)[O-])=C2N(CC3CCOC3)CCN21 (stereo not shown) [Compound 59] | 3 | 2 | – | –
12 | CN=C1CCC([N+](=O)[O-])=C2N(Cc3ccc(Cl)nc3)CCCN12 [Compound 202] | – | – | 98 | 89
13 | CC(C)CSC1CCC([N+](=O)[O-])=C2N(Cc3cnc(Cl)s3)CCN21 (stereo not shown) [Compound 179] | – | – | 56 | 12
14 | CC(C)(C)OC1CCC([N+](=O)[O-])=C2N(Cc3cnc(Cl)s3)CCN21 (racemic) [Compound 34] | 100 | 100 | – | –
15 | O=[N+]([O-])C1=C2N(Cc3cnc(Cl)s3)CCCN2C(OCC(F)(F)F)CC1 (stereo not shown) [Compound 89] | 100 | 100 | – | –
16 | CC1CC(O)N2CCN(CC3CCOC3)C2=C1[N+](=O)[O-] (stereo not shown) [Compound 68] | 7 | 2 | – | –
17 | CSC1CCC([N+](=O)[O-])=C2N(Cc3cnc(Cl)s3)CCN21 (stereo not shown) [Compound 171] | – | – | 100 | 97
18 | CC(C)(C)OC1CCC([N+](=O)[O-])=C2N(Cc3ccc(Cl)nc3)CCCN21 (stereo not shown) [Compound 82] | 34 | 12 | – | –
19 | CC(C)SC1CCC([N+](=O)[O-])=C2N(Cc3ccc(Cl)nc3)CCN21 (stereo not shown) [Compound 137] | 100 | 89 | – | –
20 | COC1CCC([N+](=O)[O-])=C2N(CC3CCOC3)CCCN21 (stereo not shown) [Compound 100] | 8 | 3 | – | –
21 | O=[N+]([O-])C1=C2N(Cc3ccc(Cl)nc3)CCN2C(OS(=O)(=O)c2ccccc2)CC1 (stereo not shown) [Compound 119] | 23 | 3 | – | –

Row | SMILES | mortality (%) (500 ppm) Nilaparvata lugens (Nilaparvata lugens) | mortality (%) (500 ppm) Aphis (Aphis craccivoral; [1]) | mortality (%) (500 ppm) Nilaparvata-lugens (Nilaparvata lugens) | mortality (%) (500 ppm) Aphis (Aphis craccivoral; [2])
22 | CC(C)(OC1CCC([N+](=O)[O-])=C2N(Cc3cnc(Cl)s3)CCN21)C(Cl)(Cl)Cl (racemic) [Compound 35] | 100 | 98 | – | –
23 | O=[N+]([O-])C1=C2N(Cc3cnc(Cl)s3)CCCN2C(O)CC1 (stereo not shown) [Compound 85] | 23 | 12 | – | –
24 | O=C(OC1CCC([N+](=O)[O-])=C2N(Cc3cnc(Cl)s3)CCN21)c1ccccn1 (stereo not shown) [Compound 160] | 8 | 4 | – | –
25 | CCC(C)SC1CCC([N+](=O)[O-])=C2N(Cc3ccc(Cl)nc3)CCN21 (stereo not shown) [Compound 144] | 56 | 12 | – | –
26 | COC1CCC([N+](=O)[O-])=C2N(Cc3cnc(Cl)s3)CCN21 (racemic) [Compound 24] | 100 | 100 | – | –
27 | CC(=O)OC1CCC([N+](=O)[O-])=C2N(Cc3ccc(Cl)nc3)CCN21 (stereo not shown) [Compound 113] | 77 | 45 | – | –
28 | COCCOC1CCC([N+](=O)[O-])=C2N(Cc3ccc(Cl)nc3)CCCN21 (stereo not shown) [Compound 83] | 26 | 38 | – | –
29 | CCC(C)OC1CCC([N+](=O)[O-])=C2N(CC3CCOC3)CCN21 (stereo not shown) [Compound 55] | 12 | 45 | – | –
30 | CN=C1CCC([N+](=O)[O-])=C2N(Cc3cnc(Cl)s3)CCCN12 [Compound 221] | – | – | 67 | 4
31 | CCCCCSC1CCC([N+](=O)[O-])=C2N(Cc3ccc(Cl)nc3)CCN21 (stereo not shown) [Compound 143] | 34 | 23 | – | –
32 | CCCN=C1CCC([N+](=O)[O-])=C2N(Cc3ccc(Cl)nc3)CCCN12 [Compound 205] | – | – | 100 | 35
33 | O=C(OC1CCC([N+](=O)[O-])=C2N(Cc3cnc(Cl)s3)CCN21)C(Cl)(Cl)Cl (stereo not shown) [Compound 154] | 100 | 93 | – | –
34 | CCN=C1CCC([N+](=O)[O-])=C2N(Cc3cnc(Cl)s3)CCN12 [Compound 214] | – | – | 90 | 55
35 | CCC(C)OC1CCC([N+](=O)[O-])=C2N(Cc3cnc(Cl)s3)CCCN21 (stereo not shown) [Compound 95] | 8 | 4 | – | –
36 | O=[N+]([O-])C1=C2N(Cc3ccc(Cl)nc3)CCN2C(OC2CCCCC2)CC1 (racemic) [Compound 18] | 67 | 23 | – | –
37 | CCC(=O)OC1CCC([N+](=O)[O-])=C2N(Cc3cnc(Cl)s3)CCN21 (stereo not shown) [Compound 153] | 38 | 29 | – | –
38 | CCCCCSC1CCC([N+](=O)[O-])=C2N(Cc3cnc(Cl)s3)CCN21 (stereo not shown) [Compound 182] | – | – | 87 | 67
39 | CCCN=C1CCC([N+](=O)[O-])=C2N(Cc3ccc(Cl)nc3)CCN12 [Compound 192] | – | – | 100 | 86
40 | C#CCOC1CCC([N+](=O)[O-])=C2N(Cc3ccc(Cl)nc3)CCN21 (racemic) [Compound 20] | 56 | 39 | – | –
41 | O=C(OC1CCC([N+](=O)[O-])=C2N(Cc3ccc(Cl)nc3)CCN21)c1ccc(F)cc1 (stereo not shown) [Compound 123] | 100 | 56 | – | –
